Conductivity and density data for one substance are collected here from US11344652B2, “Ionic liquids that sterilize and prevent biofilm formation in skin wound healing devices” (The Arizona Board of Regents on Behalf of Northern Arizona …, priority 2016, dated 2022).

Where “and” joins values, the source holds several entries; their conditions need not be identical. Identical values can stand only once.

The nature of the data set: Physical characterization of CAGE at 25° C. In kind it is physicochemical. As to the method:
Physical characterization at 25° C. was in good agreement with published values and was as follows: density, 0.989±0.001 g mL^−1; and conductivity, 0.0427±0.0005 mS cm^−1.
Physicochemical properties were identical to those previously published confirming purity (Zakrewsky et al., PNAS, 2014, 111, 13313; incorporated by reference herein in its entirety, and for the disclosure referenced herein). CAGE has unique properties based upon the 1:1:1 ratio of cation:anion:protonated acid. This is important since it gives rise to the low conductivity determined for CAGE (0.043 mS cm^−1) and is a potential indicator of anti-biofilm efficacy but, also provides insight to minimized skin irritation potential.

With choline geranate [CAGE], the conductivity was 0.0427±0.0005 mS cm^−1 and 0.043 mS cm^−1; the density amounted to 0.989 ± 0.001 g/mL.
